Reference: patent US9980979B2, “Compounds and methods for enhancing erythropoiesis” (NATIONAL YANG-MING UNIVERSITY, priority 2008, dated 2018)

Key:
[1] = test system: erythropoietin (Epo); experiment: Epo expression in kidney slices (RT-PCR); format: cell-based, mouse; conditions: 0.6-100 μg/ml, 16 hr, versus 0 μg/ml, FIG. 3
Procedure: C57BL/6JNarl mice, 8-10 weeks of age, were purchased from the National Laboratory Animal Center (NLAC, Taiwan). The kidney slices of mice were prepared as previously described with modifications (Parrish et al., 1995, Obatomi et al., 1998 and De Kanter et al., 1999). Briefly, mice were sacrificed by cervical dislocation and the kidneys were excised and immediately kept in gassed (95% O2 and 5% CO2) ice-cold sterile Krebs-HEPES buffer (pH 7.4) containing 20 mM HEPES (USB), 128 mM sodium chloride (Sigma-Aldrich), 2.5 mM potassium chloride (Sigma-Aldrich), 2.7 mM calcium chloride (Sigma-Aldrich), 1 mM magnesium chloride (Sigma-Aldrich) and 16 mM D-glucose (Sigma-Aldrich). […]
Kidney slices were preincubated in a 24-well plate (Falcon) containing 1.0 ml/well of gassed (95% O2, 5% CO2) fresh media (DMEM/F12 (Gibco/Invitrogen) containing 15 mM HEPES (USB), 20 mM sodium bicarbonate (Sigma-Aldrich)) and 5% (v/v) FBS (Gibco) for 90˜120 min at 37° C. in a 95% O2: 5% CO2 atmosphere chamber. […] The reverse-transcribed cDNA samples were analyzed by polymerase chain reaction (PCR) using ABI GeneAmp™ system 2700 (Applied Biosystems) with primers targeting toward mouse β-actin (SEQ ID NOs: 1 and 2) and erythropoietin (Epo) (SEQ ID NOs: 3 and 4) (Table 1). Results were compared with control group (0 μg/ml) and expressed as relative index.

[2] = test system: erythropoietin (Epo); experiment: Epo expression in isolated hepatocytes (RT-PCR); format: cell-based, mouse; conditions: 0.1-12.5 μg/ml, 24 hours; FIG. 4
Procedure: C57BL/6JNarl mice, 8-10 weeks of age, were purchased from the National Laboratory Animal Center (NLAC, Taiwan). The hepatocytes were isolated as previously described with modifications (Kreamer et al., 1986). Briefly, mice were anaesthetized with Avertin (2% (w/v) 2,2,2-tribromoethanol, i.p., 300 mg/Kg body weight) and the liver was perfused in situ through portal vein with a calcium-free Hank's balanced salt solution (HBSS) containing 0.5 mM Ethylene glycol-bis(2-aminoethylether)-N,N,N′,N′-tetraacetic acid (EGTA; Sigma-Aldrich). […] After 10 min of perfusion, HBSS containing 0.05% (w/v) collagenase (Type II; Worthington Biochemical Corporation) and 1 mM calcium chloride (Sigma-Aldrich) was introduced into the perfusion apparatus. The perfusion was continued for another 10 min at the same flow rate. The partially digested liver was removed, placed in a 60-mm culture dish (BD Falcon) containing HBSS, and gently minced to open the liver capsula. […]
The isolated hepatocytes were plated in 6-well plates (Costar) at approximately 6×10^5 cells/well in DMEM medium (Gibco/Invitrogen) containing 10% FBS (Gibco) in a humidified 37° C. incubator containing 5% CO2-95% air. […] The RNA of hepatocyte was extracted by RNA-Bee™ RNA isolation solvent (Tel-test) for reverse transcription, and the transcripts analyzed by PCR as previously described.

## OC[C@H]1O[C@@H](Oc2c(O)cc(O)cc2/C=C/c2ccc(O)cc2)[C@H](O)[C@@H](O)[C@@H]1O [Compound A, 2,3,5,4′-tetrahydroxystilbene 2-O-β-D-glucopyranoside]
[1]
  expression of Epo in kidney tissue (relative index): increased the expression of Epo in kidney tissue
[2]
  expression of Epo in hepatocytes: enhanced the expression of Epo in hepatocytes
